Like-named read-outs stand apart in the source and are kept apart here.
How the values were obtained:
D9-HASM cells = test: [Ca2+]i stimulation screening assay (Fluo-4) in D9-HASM cells; type: cell-based, human; conditions: for EC50: Fluo-4, mean±SE from 4-8 experiments, read-out: EC50 ([Ca^2+]i stimulation); for Emax / Rmax (% ionomycin): maximal [Ca2+]i response normalized to ionomycin 2.0 μM; for Emax: read-out: Rmax (% ionomycin)
Procedure: Cultured D9 telomerase reverse transcriptase immortalized HASM (D9-HASM) cells were utilized for the [Ca^2+]i screening assays. Cells were seeded onto 96 well plates and loaded with Fluo-4 direct. The [Ca^2+]i responses to multiple concentrations of potential agonists were determined as a measure of receptor activation. Control cells were exposed to the non-specific ionophore ionomycin at 2.0 μM (a maximal effective concentration, FIG. 4). Results from TAS2R agonist studies were normalized to the ionomycin response in order to compare the maximal responses (Rmax) between agonists. The concentration-response data were fit to a four component logistic regression model (sigmoid curve) using iterative non-linear regression methods to determine the EC50 and Rmax. The structures of the previously identified agonist termed T5-1, and 18 derivatives (denoted as T5-2 through T5-19) are shown in FIG. 2. Representative [Ca^2+]i responses to these compounds are shown in FIG. 4, and mean results from multiple concentration-response experiments are shown in FIG. 3. Table 1 summarizes the results in terms of potency (EC50) and efficacy (Rmax), with statistical comparisons to T5-1.

primary HASM cells = test: HASM cell relaxation by magnetic twisting cytometry (MTC); type: cell-based, human; conditions: for Relaxation (% basal): primary HASM cells passages 5-7, non-asthmatic donor, MTC, single concentration 500 μM; for rank of HASM cell relaxation response (FIG. 7): 500 μM, added at 60 seconds, 200-400 cells per compound
Procedure: FIG. 7 depicts HASM cell relaxation responses to selected compounds. Compounds were studied at a concentration of 500 μM and were added to the culture media at the 60 second time point (arrow). Results are from measurements of 200-400 cells per compound. *, P<0.01 vs the T5-1 reference response.
To correlate the [Ca^2+]i responses of the compounds to relevant physiologic function, we turned to measurements of single-cell mechanics in HASM cells using magnetic twisting cytometry (MTC) as previously described. Here, cultured primary HASM cells at passages 5-7 derived from a non-asthmatic donor lung were utilized. […] Positive controls (FIG. 6) included the β-agonists albuterol (partial agonist), formoterol (full agonist) and forskolin, which increases cAMP by direct activation of adenylyl cyclase.

| Structure (SMILES) | EC50 (D9-HASM cells; Homo sapiens) | Emax (D9-HASM cells; Homo sapiens) | Relaxation (% basal) (primary HASM cells) | EC50 (D9-HASM cells) | Rmax (% ionomycin) (D9-HASM cells) | rank of HASM cell relaxation response (FIG. 7) (primary HASM cells) |
| --- | --- | --- | --- | --- | --- | --- |
| O=[N+]([O-])c1cc2cccnc2c2ncccc12 [T5-13, 5-Nitro-1,10-phenanthroline] | 36 ± 3.85 µM | 134 ± 11.9% | 12.8 ± 2.00 % basal | – | – | – |
| c1ccc(-c2ccccn2)nc1 [T5-2, 2,2′-Bipyridine] | – | 16.4 ± 4.48% | −3.2 ± 1.67 % basal | – | – | – |
| Cc1ccnc(-c2cc(C)ccn2)c1 [T5-19, 4,4′-Dimethyl-2,2′-dipyridyl] | – | – | – | 60.6 ± 9.13 µM | 58.9 ± 2.95 % ionomycin | – |
| Brc1cc2cccnc2c2ncccc12 [T5-10, 5-Bromo-1,10-phenanthroline] | 4.35 ± 0.71 µM | 182 ± 25.7% | 14.4 ± 1.93 % basal | – | – | – |
| C=C(C)c1c(C(=C)C)c2cccnc2c2ncccc12 [T5-17, 5,6-di(prop-1-en-2yl)-1,10-phenanthroline] | 25.5 ± 7.06 µM | 113 ± 19% | 13.5 ± 2.59 % basal | – | – | – |
| Nc1cc2cccnc2c2ncccc12 [T5-9, 1,10-Phenanthrolin-5-amine] | 4.6 ± 0.42 µM | 176 ± 14.2% | 7.2 ± 1.95 % basal | – | – | – |
| O=C1C(=O)c2cccnc2-c2ncccc21 [T5-8, 1,10-Phenanthroline-5,6-dione] | 0.12 ± 0.05 µM | 199 ± 20.2% | 50.2 ± 2.79 % basal | – | – | greatest degree of relaxation |
| CCc1c(CC)c2cccnc2c2ncccc12 [T5-16, 5,6-Diethyl-1,10-phenanthroline] | 4.05 ± 0.8 µM | 183 ± 14.7% | – | – | – | – |
| Cc1c(C)c2cccnc2c2ncccc12 [T5-7, 5,6-Dimethyl-1,10-phenanthroline] | 2.05 ± 0.2 µM | 163 ± 36.4% | 9.0 ± 2.19 % basal | – | – | – |
| c1cnc2c(c1)ccc1ncccc12 [T5-3, 1,7-Phenanthroline] | 24.9 ± 4.58 µM | 121 ± 16.7% | 34.8 ± 1.36 % basal | – | – | – |
| Clc1cc2cccnc2c2ncccc12 [T5-11, 5-Chrolo-1,10-phenanthroline] | – | – | 18.0 ± 2.13 % basal | 11.1 ± 2 µM | 183 ± 7.3 % ionomycin | then 18 and 11 |
| Cc1ccnc2c1ccc1c(C)ccnc12 [T5-6, 4,7-Dimethyl-1,10-phenanthroline] | 1.39 ± 0.19 µM | 147 ± 16.7% | 5.3 ± 1.95 % basal | – | – | – |
| Cc1cc2cccnc2c2ncccc12 [T5-12, 5-Methyl-1,10-phenanthroline] | 12.1 ± 1.99 µM | 181 ± 24.6% | – | – | – | – |
| c1cnc2c(c1)ccc1cccnc12 [T5-1, 1,10-Phenanthroline, reference compound] | 29.7 ± 5.57 µM | 149 ± 10.2% | 10.8 ± 2.17 % basal | – | – | – |
| Cc1ccc2ccc3ccc(C)nc3c2n1 [T5-5, 2,9-Dimethyl-1,10-phenanthroline] | 33.3 ± 6.4 µM | 143 ± 13.1% | 12.0 ± 1.47 % basal | – | – | – |
| c1cnc2ccc3ncccc3c2c1 [T5-4, 4,7-Phenanthroline] | – | 15.4 ± 3.37% | 15.3 ± 1.48 % basal | – | – | – |
| COc1c(OC)c2cccnc2c2ncccc12 [T5-15, 5,6-Dimethoxy-1,10-phenanthroline] | 7.48 ± 0.78 µM | 127 ± 16.1% | 26.7 ± 1.65 % basal | – | – | then 15 |
| O=C1C(=O)c2ccccc2-c2ccccc21 [T5-18, 9,10-Phenanthrenequinone] | 5.08 ± 1.37 µM | 153 ± 5.2% | 20.0 ± 2.00 % basal | – | – | then 18 and 11 |
| c1cnc2c(c1)c1nccnc1c1cccnc12 [T5-14, Pyrazino[2,3-f][1,10]phenanthroline] | 147 ± 2.26 µM | 34.5 ± 15.1% | 6.1 ± 1.67 % basal | – | – | – |

Reference: US12257248B2, “Bronchodilators for treating obstructive lung disease” (University of South Florida, priority 2020, dated 2025)
